Counter-ions that a name gives are not always drawn.
Molecular target: GST tagged IRAK4 (Homo sapiens (Human), UniProt Q9NWZ3)
Experiment: IRAK4 Kinase Assay (IMAP fluorescence polarization)
Type: biochemical
Conditions: 0.5 nM GST tagged IRAK4, 100 μM ATP, 30 minutes at 25° C.
Procedure: The kinase activity of IRAK4 is determined by its ability to catalyze the phosphorylation of a fluorescent polypeptide substrate. The extent of phosphorylation is measured using the IMAP technology (Molecular Devices) where the phosphorylated fluorescent substrate binds to the large M(III)-based nanoparticles which reduces the rotational speed of the substrate and thus increases its fluorescent polarization (FP).
20 μL reaction mixture contains 10 mM TriHCl, pH 7.2, 0.5 nM GST tagged IRAK4 (SignalChem), 100 nM fluorescent peptide substrate (RP7030, Molecular Devices), 100 μM ATP, 1 mM DDT, 1 mM MgCl2, and 0.01% Tween 20. The reaction is initiated by the addition of ATP. After incubation for 30 minutes at 25° C., 60 μL of Progressive IMAP Reagent (Molecular Devices) is added to stop the reaction. Change in RP7030's FP is determined by a FP reader (Analyst HT, LJL BioSystems).

GST tagged IRAK4, sequence (Q9NWZ3 whole entry): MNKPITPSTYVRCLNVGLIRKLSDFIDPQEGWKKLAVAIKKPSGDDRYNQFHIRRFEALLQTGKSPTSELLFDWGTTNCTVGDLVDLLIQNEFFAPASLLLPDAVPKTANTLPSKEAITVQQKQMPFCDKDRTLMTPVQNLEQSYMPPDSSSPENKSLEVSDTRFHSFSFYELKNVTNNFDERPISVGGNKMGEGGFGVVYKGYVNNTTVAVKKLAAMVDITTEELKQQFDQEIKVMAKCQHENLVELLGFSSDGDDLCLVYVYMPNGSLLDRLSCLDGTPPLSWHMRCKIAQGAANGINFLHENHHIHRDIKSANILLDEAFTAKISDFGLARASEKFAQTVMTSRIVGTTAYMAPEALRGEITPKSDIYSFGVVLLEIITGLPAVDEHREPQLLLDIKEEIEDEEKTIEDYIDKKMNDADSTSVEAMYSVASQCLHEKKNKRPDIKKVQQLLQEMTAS

| Structure (SMILES) | IC50 [µM] |
| --- | --- |
| Cn1cc(NC(=O)c2ccc3cnc(N4C5CCC4CNC5)nn23)c(C#N)n1 [Example 111, N-(3-cyano-1-methyl-1H-pyrazol-4-yl)-2-(3,8-diazabicyclo[3.2.1]oct-8-yl)pyrrolo[2,1-f][1,2,4]triazine-7-carboxamide trifluoroacetate] | 0.012 |
| Cn1cc(NC(=O)c2ccc3cnc(N4CCCNCC4)nn23)c(C(F)(F)F)n1 [Example 6, 2-(1,4-diazepan-1-yl)-N-[1-methyl-3-(trifluoromethyl)-1H-pyrazol-4-yl]pyrrolo[2,1-f][1,2,4]triazine-7-carboxamide trifluoroacetate] | 0.094 |
| Cn1cc(NC(=O)c2ccc3cnc(N4C[C@H]5CNC[C@@H]4C5)nn23)c(C(F)(F)F)n1 (single isomer, unassigned) [Example 117, 2-[(1S,5R)- or (1R,5S)-3,6-diazabicyclo[3.2.1]oct-6-yl]-N-[1-methyl-3-(trifluoromethyl)-1H-pyrazol-4-yl]pyrrolo[2,1-f][1,2,4]triazine-7-carboxamide] | 0.145 |
| O=C(Nc1cscc1Br)c1ccc2cnc(N3CC4CCC3CN4)nn12 (stereo not drawn) [Example 24, N-(4-bromothiophen-3-yl)-2-(2,5-diazabicyclo[2.2.2]oct-2-yl)pyrrolo[2,1-f][1,2,4]triazine-7-carboxamide trifluoroacetate] | 0.68 |
| O=C(Nc1ccccc1Br)c1ccc2cnc(N3CCCNCC3)nn12 [Example 33, N-(2-bromophenyl)-2-(1,4-diazepan-1-yl)pyrrolo[2,1-f][1,2,4]triazine-7-carboxamide trifluoroacetate] | 5.35 |
| N#Cc1cscc1NC(=O)c1ccc2cnc(N3CC4CCC3CN4)nn12 (stereo not drawn) [Example 36, N-(4-cyanothiophen-3-yl)-2-(2,5-diazabicyclo[2.2.2]oct-2-yl)pyrrolo[2,1-f][1,2,4]triazine-7-carboxamide trifluoroacetate] | 0.426 |
| Cn1cc(NC(=O)c2ccc3cnc(N[C@@H]4CCCC[C@@H]4O)nn23)c(C#N)n1 [Example 122, N-(3-cyano-1-methyl-1H-pyrazol-4-yl)-2-{[(1R,2S)-2-hydroxycyclohexyl]amino}-pyrrolo[2,1-f][1,2,4]triazine-7-carboxamide trifluoroacetate] | 0.02 |
| Cn1cc(NC(=O)c2ccc3cnc(N[C@H]4CNC[C@H](F)C4)nn23)c(C(F)(F)F)n1 [Example 162, 2-{[(3R,5R)-5-fluoropiperidin-3-yl]amino}-N-[1-methyl-3-(trifluoromethyl)-1H-pyrazol-4-yl]pyrrolo[2,1-f][1,2,4]triazine-7-carboxamide trifluoroacetate] | 0.018 |
| O=C(Nc1ccsc1Cl)c1ccc2cnc(N3CCCNCC3)nn12 [Example 31, N-(2-chlorothiophen-3-yl)-2-(1,4-diazepan-1-yl)pyrrolo[2,1-f][1,2,4]triazine-7-carboxamide trifluoroacetate] | 0.866 |
| Cn1cc(NC(=O)c2ccc3cnc(N4CC5CCC(C4)N5)nn23)c(C#N)n1 [Example 110, N-(3-cyano-1-methyl-1H-pyrazol-4-yl)-2-(3,8-diazabicyclo[3.2.1]oct-3-yl)pyrrolo[2,1-f][1,2,4]triazine-7-carboxamide trifluoroacetate] | 0.117 |
| O=C(Nc1ccsc1Br)c1ccc2cnc(N3C[C@H]4CC[C@@H]3CN4)nn12 (single isomer, unassigned) [Example 49, N-(2-bromothiophen-3-yl)-2-[(1S,4S)- or (1R,4R)-2,5-diazabicyclo[2.2.2]oct-2-yl]pyrrolo[2,1-f][1,2,4]triazine-7-carboxamide trifluoroacetate] | 1.93 |
| Cn1cc(NC(=O)c2ccc3cnc(N[C@@H]4CCCC[C@@H]4N)nn23)c(C(F)(F)F)n1 [Example 2, 2-{[(1R,2S)-2-aminocyclohexyl]amino}-N-[1-methyl-3-(trifluoromethyl)-1H-pyrazol-4-yl]pyrrolo[2,1-f][1,2,4]triazine-7-carboxamide trifluoroacetate] | 0.002 |
